16 compounds from PubChem BioAssay (NCI) can be followed below.

Each structure is given as a SMILES string.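 In this assay, cells in 96-well plates receive the compound at five concentrations for 48 hours. Endpoints are linearly interpolated between the surrounding concentrations. TGI: total growth inhibition.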 Where a SMILES comes first, the peptide text is derived from it.

Test systems include U251 CNS; A498 renal; SK-MEL-2 melanoma; OVCAR-3 ovarian; A549 NSCLC; NCI-H460 lung; HOP-62 NSCLC; OVCAR-4 ovarian; MDA-MB-231 breast; CAKI-1 renal; UACC-62 melanoma; K-562 leukemia; HT29 colon; SK-OV-3 ovarian; TK-10 renal.
Test in all cases: NCI anticancer screen, dose series, 48 h

For `CS(=O)(=O)O[C@H]1[C@H](O)c2ccccc2[C@@H]1N=[N+]=[N-]`, the TGI in the experiment with U251 CNS, in the experiment with A498 renal, in the experiment with SK-MEL-2 melanoma, in the experiment on OVCAR-3 ovarian, in the experiment with A549 NSCLC and in the experiment with NCI-H460 lung was above 100 µM throughout. In addition, the TGI in the experiment with HOP-62 NSCLC, in the experiment with OVCAR-4 ovarian, in the experiment with MDA-MB-231 breast, with CAKI-1 renal, in the experiment on UACC-62 melanoma and with K-562 leukemia was above 100 µM each time. The TGI with HT29 colon and with SK-OV-3 ovarian was above 100 µM each time.
For `CCCCCCCCCCOCCOCCOCCOCCCCC(O)CCCCCCCC1=C[C@H](C)OC1=O` (stereo partly drawn), the TGI in the experiment with U251 CNS was found to be 23.5 µM; with A498 renal, 26.5 µM; in the experiment with SK-MEL-2 melanoma it was 25 µM; in the experiment on OVCAR-3 ovarian, 33.8 µM; with A549 NSCLC, 29.9 µM; with NCI-H460 lung, 22 µM. The TGI with OVCAR-4 ovarian came to 37.7 µM; with MDA-MB-231 breast, 30.8 µM; in the experiment on CAKI-1 renal it was 32.2 µM; in the experiment with UACC-62 melanoma, 28.7 µM; with K-562 leukemia it was 36.3 µM; in the experiment on HT29 colon it was 24.4 µM. The TGI with SK-OV-3 ovarian is 41.4 µM; in the experiment on TK-10 renal, 21.4 µM.
`COC(=O)/N=[N+](\[O-])C(c1ccccc1)c1ccccc1`: the TGI in the experiment on U251 CNS, with A498 renal, in the experiment on SK-MEL-2 melanoma, with OVCAR-3 ovarian, in the experiment with A549 NSCLC and with NCI-H460 lung was above 100 µM each time. Further, the TGI in the experiment on OVCAR-4 ovarian, in the experiment with MDA-MB-231 breast, in the experiment with CAKI-1 renal, with UACC-62 melanoma, with K-562 leukemia and with HT29 colon was above 100 µM each time. For the same compound, the TGI in the experiment on SK-OV-3 ovarian and with TK-10 renal was above 100 µM throughout.
Take `CC(C(=O)n1ccnc1)N1c2ccccc2Sc2ccccc21` (stereo not drawn): the TGI in the experiment with U251 CNS, with A498 renal, in the experiment with SK-MEL-2 melanoma, with OVCAR-3 ovarian, with A549 NSCLC and with NCI-H460 lung was above 100 µM in each case. Also, the TGI in the experiment with HOP-62 NSCLC, with OVCAR-4 ovarian, in the experiment on MDA-MB-231 breast, with UACC-62 melanoma, in the experiment on K-562 leukemia and in the experiment on HT29 colon was above 100 µM in each case. The TGI with SK-OV-3 ovarian and in the experiment on TK-10 renal was above 100 µM each time.
Consider `C[N+]12C=CC=C1C(N1CCCC1)c1scc(-c3ccc(F)cc3)c12` (stereo not drawn), for which the TGI in the experiment on U251 CNS was above 100 µM; in the experiment with A498 renal, above 100 µM; in the experiment with SK-MEL-2 melanoma, 49 µM; in the experiment with OVCAR-3 ovarian, above 100 µM; in the experiment with A549 NSCLC, above 100 µM; in the experiment with HOP-62 NSCLC, above 100 µM. The TGI was above 100 µM in the experiment with MDA-MB-231 breast; above 100 µM in the experiment on CAKI-1 renal; above 100 µM in the experiment with UACC-62 melanoma; 26.5 µM in the experiment with K-562 leukemia; 45.3 µM in the experiment with HT29 colon; above 100 µM with SK-OV-3 ovarian.
As to `C#CCOCn1cc(C)c(=O)[nH]c1=O`, the TGI in the experiment with U251 CNS, in the experiment with A498 renal, in the experiment on SK-MEL-2 melanoma, in the experiment on A549 NSCLC, in the experiment with NCI-H460 lung and with HOP-62 NSCLC was above 100 µM each time. The TGI in the experiment on MDA-MB-231 breast, in the experiment with CAKI-1 renal, with UACC-62 melanoma, with K-562 leukemia, in the experiment on HT29 colon and in the experiment with SK-OV-3 ovarian was above 100 µM in each case. The TGI in the experiment with TK-10 renal was above 100 µM.
With `CCC(C)C(NC(=O)C(CC(C)C)NC(=O)CNC(=O)C(NC(=O)C1CCCN1C(=O)C(CC(C)C)NC(=O)C(N)Cc1ccccc1)C(C)CC)C(=O)NC(CC(C)C)C(N)=O` (stereo not drawn) (H-FLPIGLIL-NH2; configuration not given here), the TGI in the experiment on U251 CNS, in the experiment on A498 renal, in the experiment on SK-MEL-2 melanoma, in the experiment on OVCAR-3 ovarian, in the experiment with A549 NSCLC and in the experiment on HOP-62 NSCLC was above 75 µM throughout. For the same compound, the TGI in the experiment with OVCAR-4 ovarian, with MDA-MB-231 breast, in the experiment with CAKI-1 renal, in the experiment with UACC-62 melanoma, with K-562 leukemia and with HT29 colon was above 75 µM in each case. Besides, the TGI with SK-OV-3 ovarian and with TK-10 renal was above 75 µM each time.
On to `NC(=O)Cn1c(=O)oc2cc(C(=O)CN3CCOCC3)ccc21`, for which the TGI in the experiment with U251 CNS, in the experiment on A498 renal, in the experiment with SK-MEL-2 melanoma, in the experiment on OVCAR-3 ovarian, in the experiment on HOP-62 NSCLC and in the experiment on MDA-MB-231 breast was above 100 µM each time. The TGI in the experiment with CAKI-1 renal, in the experiment on K-562 leukemia, in the experiment with HT29 colon and in the experiment on SK-OV-3 ovarian was above 100 µM throughout.
Regarding `CC(=O)Nc1cc2nc3n(c2cc1C)CCC3OC(C)=O` (stereo not drawn), the TGI with U251 CNS, in the experiment with A498 renal, in the experiment with SK-MEL-2 melanoma, with OVCAR-3 ovarian, in the experiment with A549 NSCLC and in the experiment with NCI-H460 lung was above 100 µM in each case. For the same compound, the TGI in the experiment with OVCAR-4 ovarian, in the experiment on MDA-MB-231 breast, with CAKI-1 renal, in the experiment with UACC-62 melanoma, in the experiment with K-562 leukemia and with HT29 colon was above 100 µM each time. Further, the TGI in the experiment on SK-OV-3 ovarian is above 100 µM.
For `OCC1CCCC1O` (stereo not drawn), the TGI with U251 CNS, in the experiment with A498 renal, in the experiment on SK-MEL-2 melanoma, in the experiment with OVCAR-3 ovarian, in the experiment with A549 NSCLC and with NCI-H460 lung was above 100 µM each time. Also, the TGI with OVCAR-4 ovarian, with MDA-MB-231 breast, in the experiment with CAKI-1 renal, with UACC-62 melanoma, in the experiment on K-562 leukemia and in the experiment on HT29 colon was above 100 µM throughout. Besides, the TGI with TK-10 renal was above 100 µM.
In the case of `O=C(CN=C(CN(c1ccccc1)c1ccccc1)Oc1ccc(Cl)cc1Cl)n1ccnc1`, the TGI with U251 CNS, in the experiment on A498 renal, in the experiment with SK-MEL-2 melanoma, in the experiment on OVCAR-3 ovarian, with A549 NSCLC and with NCI-H460 lung was above 100 µM throughout. For the same compound, the TGI in the experiment with HOP-62 NSCLC, in the experiment on OVCAR-4 ovarian, with MDA-MB-231 breast, in the experiment with UACC-62 melanoma, in the experiment on K-562 leukemia and in the experiment with HT29 colon was above 100 µM throughout. Also, the TGI in the experiment with SK-OV-3 ovarian and with TK-10 renal was above 100 µM in each case.
As to `CC(=O)Oc1ccc2cc(-c3ccc(OC(C)=O)c(OC(C)=O)c3)c(=O)oc2c1`, the TGI in the experiment with U251 CNS, in the experiment with A498 renal, in the experiment with SK-MEL-2 melanoma, in the experiment on OVCAR-3 ovarian, in the experiment on A549 NSCLC and in the experiment on NCI-H460 lung was above 100 µM each time. Besides, the TGI in the experiment with HOP-62 NSCLC, in the experiment on OVCAR-4 ovarian, with MDA-MB-231 breast, in the experiment with K-562 leukemia, in the experiment on HT29 colon and in the experiment on TK-10 renal was above 100 µM throughout.
Regarding `CC1=CC(=O)N(n2c(Cc3ccc(Cl)cc3)n[nH]c2=O)C1=O`, the TGI with U251 CNS, in the experiment with A498 renal, in the experiment with SK-MEL-2 melanoma, in the experiment with OVCAR-3 ovarian, in the experiment on A549 NSCLC and with NCI-H460 lung was above 100 µM in each case. Besides, the TGI in the experiment on OVCAR-4 ovarian is above 100 µM; with MDA-MB-231 breast, above 100 µM; with CAKI-1 renal it was above 100 µM; with UACC-62 melanoma, 45.4 µM; in the experiment on K-562 leukemia it was 72.2 µM; with HT29 colon it was 55.3 µM. The TGI in the experiment on SK-OV-3 ovarian and in the experiment on TK-10 renal was above 100 µM in each case.
Consider `O=c1[nH]nc(Cc2ccccc2)n1/N=C/c1ccc([N+](=O)[O-])cc1`, for which the TGI in the experiment on U251 CNS, in the experiment with A498 renal, with SK-MEL-2 melanoma, with OVCAR-3 ovarian, with A549 NSCLC and in the experiment with NCI-H460 lung was above 100 µM each time. In addition, the TGI in the experiment with HOP-62 NSCLC, in the experiment on OVCAR-4 ovarian, with MDA-MB-231 breast, with CAKI-1 renal, in the experiment with UACC-62 melanoma and in the experiment on K-562 leukemia was above 100 µM each time. Besides, the TGI in the experiment on HT29 colon and in the experiment with TK-10 renal was above 100 µM each time.
With `COc1ccc(-c2nc3c(C(=O)NCCN(C)C)cccc3c3ccccc23)cc1`, the TGI amounted to 10.1 µM with U251 CNS; 8.96 µM with A498 renal; 18.4 µM in the experiment on SK-MEL-2 melanoma; 16.6 µM in the experiment on OVCAR-3 ovarian; 12.6 µM with A549 NSCLC; 10.9 µM in the experiment on NCI-H460 lung. The TGI in the experiment with HOP-62 NSCLC is 13.3 µM; in the experiment on OVCAR-4 ovarian, 12.5 µM; in the experiment on MDA-MB-231 breast, 12.2 µM; in the experiment on CAKI-1 renal, 7.05 µM; with UACC-62 melanoma, 4.66 µM; in the experiment on K-562 leukemia, 4.68 µM. Further, the TGI was 7.78 µM in the experiment on HT29 colon and 19.8 µM with TK-10 renal.
As for `COc1cc(C2OC[C@@H]3C(=O)OC[C@H]23)cc(O)c1OC` (stereo partly drawn), the TGI in the experiment on U251 CNS, in the experiment with A498 renal, in the experiment on SK-MEL-2 melanoma, in the experiment on OVCAR-3 ovarian, in the experiment on A549 NSCLC and with NCI-H460 lung was above 100 µM in each case. Moreover, the TGI in the experiment on OVCAR-4 ovarian, with MDA-MB-231 breast, in the experiment with CAKI-1 renal, in the experiment on UACC-62 melanoma, in the experiment with K-562 leukemia and in the experiment on HT29 colon was above 100 µM throughout. Besides, the TGI with SK-OV-3 ovarian and with TK-10 renal was above 100 µM throughout.
